From US20240174634A1, “Aldehyde Dehydrogenase Inhibitors and Their Therapeutic Use” (priority 2020, published 2024) come the findings set out here.

One assay addresses T1, ALDH1A1 (Homo sapiens, UniProt P00352).
T1 construct: His-tag; made in house; host or cells: E. coli Rosetta (DE3)
T1 sequence (P00352 1-501): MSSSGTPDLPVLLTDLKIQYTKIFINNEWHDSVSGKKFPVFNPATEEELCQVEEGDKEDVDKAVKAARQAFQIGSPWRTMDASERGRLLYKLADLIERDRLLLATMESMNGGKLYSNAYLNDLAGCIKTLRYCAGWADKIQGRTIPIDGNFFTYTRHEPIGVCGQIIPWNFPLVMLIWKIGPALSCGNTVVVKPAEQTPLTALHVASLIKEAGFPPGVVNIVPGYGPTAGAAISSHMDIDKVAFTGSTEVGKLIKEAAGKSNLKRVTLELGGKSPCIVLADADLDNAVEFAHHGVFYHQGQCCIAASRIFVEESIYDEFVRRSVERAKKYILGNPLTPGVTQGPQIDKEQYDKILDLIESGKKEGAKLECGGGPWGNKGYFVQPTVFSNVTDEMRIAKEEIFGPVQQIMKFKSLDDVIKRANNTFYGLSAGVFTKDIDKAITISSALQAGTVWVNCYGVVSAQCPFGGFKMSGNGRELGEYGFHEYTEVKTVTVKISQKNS
The assay can be described thus: Selectivity biochemical assay, NAD(P)H-Glo Detection System. From the text: (§1) Cloning: Open reading frames corresponding to the protein coding sequences of full length human ALDH1A1 (Uniprot ID P00352), ALDH1A2 (094788) and ALDH1A3 (P47895) were polymerase chain reaction (PCR) amplified from human cDNA and inserted into the multi-cloning sites of the commercially available (Novagen) E. coli expression vectors pET47b (ALDH1A1, EcoRI restriction site; ALDH1A2, BamHI and EcoRI sites) or pET28a (ALDH1A3, NdeI and BamHI sites), using standard molecular genetic techniques. Recombinant DNA products were sequence verified prior to use in expression studies.
(§2) Expression: Expression constructs were transformed into the E. coli strain Rosetta (DE3) (Merck) and individual colonies used to inoculate 10 mL lysogen broth (LB) medium supplemented with kanamycin and chloramphenicol at 50 μg/mL and 34 μg/mL, respectively. Cultures were grown to saturation overnight at 37° C., prior to being used to sub-inoculate fresh 1 L LB medium cultures (plus antibiotics, as before). 1 L cultures were grown at 37° C., 200 rpm, throughout the day until the optical density at 600 nm (OD600) reached ˜0.8, at which point growth temperature was reduced to 18° C. and 1 mM isopropyl β-d-1-thiogalacto pyranoside (IPTG) added to induce protein expression.
(§3) Cultures were left overnight (at least 16 h) under these conditions and the following day harvested by centrifugation (4000 G, 10 minutes). Culture supernatant was discarded and cell pellets stored at −80° C. until further processing.
(§4) Purification: Cell pellets were thawed on ice, re-suspended in Ni Affinity Buffer A (20 mM HEPES pH 7.5, 300 mM NaCl, 20 mM imidazole, 1 mM tris(2-carboxyethyl)phosphine (TCEP)) with protease inhibitors (cOmplete Ultra protease inhibitor, Roche), and lysed by sonication. Lysates were clarified by centrifugation at 18,000 G, 4° C., for 40 minutes, and loaded directly onto a pre-equilibrated (Buffer A) 5 mL HisTrap Fast Flow column (GE Healthcare) by way of an AKTA Fast Protein Liquid Chromatography (FPLC) system. The column was sequentially treated with 6 column volumes (CV) 100% Buffer A, 8 CV of 90% Buffer A:10% Buffer B (20 mM 4-(2-hydroxyethyl)-1-piperazineethanesulfonic acid (HEPES) pH 7.5, 300 mM NaCl, 500 mM imidazole, 1 mM TCEP) and finally a linear gradient from 10-70% Buffer B over 8 CV to elute recombinant His-tagged protein. Relevant fractions (as measured by 280 nm absorbance) collected during elution were pooled and subjected to further purification by size exclusion chromatography (Superdex 200 26/600, GE Healthcare, running buffer 20 mM 2-(carbamoylmethylamino)ethanesulfonic acid (ACES) pH 7.5, 1 mM TCEP). Relevant fractions from this step were pooled, aliquoted, and stored at −80° C. until required for compound profiling assays.
(§5) Materials: ALDH2 was purchased from Abnova. Tris(hydroxymethyl)aminomethane (Tris) was purchased from MP Biomedicals. TCEP, ethylenediaminetetraacetic acid (EDTA), propionaldehyde, DMSO and Tween-20 were purchased from Sigma. Nicotinamide adenine dinucleotide (NAD) was obtained from Abcam. The NAD(P)H-Glo™ Detection System was purchased from Promega. White, non-binding surface, 384 well plates were supplied by Corning (#3574).
(§6) Method: Inhibition of ALDH1A3 was assessed using the NAD(P)H-Glo™ Detection System (Cat. No. G9062) from Promega. This assay detects the production of NADH from NAD by ALDH1A3 via the coupled enzymatic conversion of a proluciferin reductase substrate to generate a luminescent signal. Inhibition of ALDH1A3 by small molecule inhibitors will result in reduction or abrogation of luminescence signal increase above background. Inhibition of ALDH1A1, ALDH1A2 and ALDH2 (selectivity assays) were assessed using the same assay.
(§7) Compounds were dosed into Corning 384 well assay plates using an Echo acoustic dispenser to give 10 point curves in a 3-fold dilution series. Compounds were dispensed from a 20 mM DMSO stock and initially screened at a top concentration of 20 μM (ALDH1A3) or 250 μM (ALDH1A1, ALDH1A2 & ALDH2). […]

A further assay deals with T2, ALDH1A2 (Homo sapiens, UniProt O94788).
T2 construct: His-tag; made in house; host or cells: E. coli Rosetta (DE3)
T2 sequence (O94788 1-518): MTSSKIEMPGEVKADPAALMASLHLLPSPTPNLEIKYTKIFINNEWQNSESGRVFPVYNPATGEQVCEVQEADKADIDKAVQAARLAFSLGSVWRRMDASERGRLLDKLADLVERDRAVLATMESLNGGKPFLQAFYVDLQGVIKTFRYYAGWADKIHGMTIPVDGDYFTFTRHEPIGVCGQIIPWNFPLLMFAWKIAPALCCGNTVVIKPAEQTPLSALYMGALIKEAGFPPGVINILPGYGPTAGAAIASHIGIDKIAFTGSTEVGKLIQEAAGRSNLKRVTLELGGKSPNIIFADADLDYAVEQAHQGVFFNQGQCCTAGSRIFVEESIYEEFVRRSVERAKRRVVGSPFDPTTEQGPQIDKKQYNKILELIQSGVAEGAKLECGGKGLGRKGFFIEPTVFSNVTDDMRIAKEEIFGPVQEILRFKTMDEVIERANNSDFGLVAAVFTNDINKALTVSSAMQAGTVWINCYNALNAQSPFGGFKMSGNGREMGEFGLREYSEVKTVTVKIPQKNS
The description is as above.
From the text: as §1, §2, §3, §4, §5, §6, §7

Usually IC50 stands for the concentration that inhibits the measured activity by half. Low readings indicate inhibition by little substance, high ones a need for much substance. In the case of `O=C1CCc2cc(NC(=O)c3sccc3-c3cccc(F)c3)ccc2N1` [ALDHI-1022, 3-(3-fluorophenyl)-N-(2-oxo-3,4-dihydro-1H-quinolin-6-yl)thiophene-2-carboxamide], the IC50 fell in the range of 10 to 100 µM on ALDH1A1 and 1 to 10 µM at ALDH1A2.
For `O=C1CCc2cc(NC(=O)c3scnc3-c3cccs3)ccc2N1` [ALDHI-1023, N-(2-oxo-3,4-dihydro-1H-quinolin-6-yl)-4-(2-thienyl)thiazole-5-carboxamide], the half-maximal inhibitory concentration (IC50) at ALDH1A1 is at least 100 µM; on ALDH1A2, 0.1 to 1 µM.
In the case of `O=C1CCc2cc(OCCN3CCCC3c3cccc(F)c3)ccc2N1` (stereo not drawn) [ALDHI-2001, 6-[2-[2-(3-fluorophenyl)pyrrolidin-1-yl]ethoxy]-3,4-dihydro-1H-quinolin-2-one], the IC50 on ALDH1A1 is at least 100 µM; against ALDH1A2 it was 0.1 to 1 µM.
Consider `O=C1CCc2cc(OCCN3CCCC3c3ccccc3F)ccc2N1` (stereo not drawn) [ALDHI-2002, 6-[2-[2-(2-fluorophenyl)pyrrolidin-1-yl]ethoxy]-3,4-dihydro-1H-quinolin-2-one], for which the figures for the IC50 on ALDH1A1 and at ALDH1A2 were at least 100 µM and 10 to 100 µM, respectively.
For `O=C1CCc2cc(OCCN3CCCC3c3ccc(F)cc3)ccc2N1` (stereo not drawn) [ALDHI-2003, 6-[2-[2-(4-fluorophenyl)pyrrolidin-1-yl]ethoxy]-3,4-dihydro-1H-quinolin-2-one] the same measures were at least 100 µM and 1 to 10 µM.
For `O=C1CCc2cc(OCCN3CCCC3c3ccncc3)ccc2N1` (stereo not drawn) [ALDHI-2004, 6-[2-[2-(4-pyridyl)pyrrolidin-1-yl]ethoxy]-3,4-dihydro-1H-quinolin-2-one] the same measures were at least 100 µM and 10 to 100 µM.
For `O=C1CCc2cc(OCCN3CCCC3c3cccnc3)ccc2N1` (stereo not drawn) [ALDHI-2005, 6-[2-[2-(3-pyridyl)pyrrolidin-1-yl]ethoxy]-3,4-dihydro-1H-quinolin-2-one] the same measures were at least 100 µM and 10 to 100 µM.
For the compound `O=C1CCc2cc(OCCN3CCCC3c3ccccn3)ccc2N1` (stereo not drawn) [ALDHI-2006, 6-[2-[2-(2-pyridyl)pyrrolidin-1-yl]ethoxy]-3,4-dihydro-1H-quinolin-2-one], the IC50 at ALDH1A1 is at least 100 µM; against ALDH1A2, 1 to 10 µM.
As for `O=C1CCc2cc(OCCN3CCC[C@@H]3c3cccc(F)c3)ccc2N1` [ALDHI-2007, 6-[2-[(2R)-2-(3-fluorophenyl)pyrrolidin-1-yl]ethoxy]-3,4-dihydro-1H-quinolin-2-one], the IC50 against ALDH1A1 was at least 100 µM; against ALDH1A2, 0.1 to 1 µM.
With `O=C1CSc2cc(OCCN3CCCC3c3cccc(F)c3)ccc2N1` (stereo not drawn) [ALDHI-2008, 7-[2-[2-(3-fluorophenyl)pyrrolidin-1-yl]ethoxy]-4H-1,4-benzothiazin-3-one], the IC50 is at least 100 µM against ALDH1A1 and 10 to 100 µM at ALDH1A2.
`O=C1COc2cc(OCCN3CCCC3c3cccc(F)c3)ccc2N1` (stereo not drawn) [ALDHI-2009, 7-[2-[2-(3-fluorophenyl)pyrrolidin-1-yl]ethoxy]-4H-1,4-benzoxazin-3-one]: the IC50 is at least 100 µM against ALDH1A1 and 1 to 10 µM against ALDH1A2.
For the compound `Cc1ccc(C2CCCN2CCOc2ccc3c(c2)CCC(=O)N3)cc1` (stereo not drawn) [ALDHI-2010, 6-[2-[2-(p-tolyl)pyrrolidin-1-yl]ethoxy]-3,4-dihydro-1H-quinolin-2-one], the IC50 at ALDH1A1 and on ALDH1A2 was at least 100 µM each time.
As for `Cc1cccc(C2CCCN2CCOc2ccc3c(c2)CCC(=O)N3)c1` (stereo not drawn) [ALDHI-2011, 6-[2-[2-(m-tolyl)pyrrolidin-1-yl]ethoxy]-3,4-dihydro-1H-quinolin-2-one], the IC50 against ALDH1A1 is at least 100 µM; against ALDH1A2, 10 to 100 µM.
On to `Cc1ccccc1C1CCCN1CCOc1ccc2c(c1)CCC(=O)N2` (stereo not drawn) [ALDHI-2012, 6-[2-[2-(o-tolyl)pyrrolidin-1-yl]ethoxy]-3,4-dihydro-1H-quinolin-2-one], for which the IC50 against ALDH1A1 and at ALDH1A2 was at least 100 µM each time.
With `O=C1CCc2cc(OCCN3CCCC3c3cccs3)ccc2N1` (stereo not drawn) [ALDHI-2013, 6-[2-[2-(2-thienyl)pyrrolidin-1-yl]ethoxy]-3,4-dihydro-1H-quinolin-2-one], the IC50 on ALDH1A1 was at least 100 µM; on ALDH1A2, 1 to 10 µM.
